Source: patent EP4733300A1, “NOVEL CHROMENE-BENZIMIDAZOLE DERIVATIVE OR PHARMACEUTICALLY ACCEPTABLE SALT THEREOF, AND USE THEREOF” (Korea University Research and Business Foundation, priority 2023, dated 2024)
Read-outs that look alike come from different tables or passages of the source. One block for each compound: values may come before it.

How the values were obtained:
BT549 [1] = test: Morphological changes of cells by optical microscope, BT549; assay type: cell-based; conditions: 0, 5, 10, and 20 µM, 72 hours
Procedure: (§1) After treating the MDA-MB-231 and BT549 cell lines with the 1-1 compound by concentration (0, 5, 10, and 20 µM) for 72 hours, morphological changes of cells were observed using an optical microscope, which is shown in FIG. 7C.

[2] = system: C-terminal domain of Hsp90; test: Hsp90 C-terminal activity by binding analysis with C recombinant protein; conditions: compared to Novobiocin
From the text: In order to evaluate the ability to inhibit the C-terminal domain of Hsp90, it was attempted to evaluate the ability to inhibit Hsp90 C-terminal activity through analysis of binding force between the 1-1 compound, a C-terminal Hsp90 inhibitor Novobiocin, and an N-terminal inhibitor Onalespib, and a C recombinant protein.

MDA-MB-231 [3] = test: Morphological changes of cells by optical microscope, MDA-MB-231; assay type: cell-based, human; conditions: 72 hours; for morphological changes of cells: 0.5 µM
Procedure: as §1
Subsequently, an experiment was performed as follows to confirm the targeting ability for Compounds 1-13 and 1-22. After treating the MDA-MB-231 cell line with the 1-22 and 1-13 compounds at a concentration of 0.5 µM for 72 hours, morphological changes of cells were observed using an optical microscope, and micrographs are shown in FIG. 10A. […] In addition, after treating MDA-MB-231 with the 1-22 and 1-13 compounds at a concentration of 0.5 µM for 72 hours, expression of HSP90 chaperon complexes (HSP90, HSP70, HSP27, HSF-1), HSP90 client proteins (EGFR, AKT, JAK2, STAT3), Tubulin targeting ability (Tubulin, mitosis marker p-His H3), and apoptosis-related factors (Cleaved caspase-7, Survivin, Mcl-1) proteins was confirmed using a Western blot technique, which is shown in FIG. 10B.

BT549 [4] = test: MTS assay cell viability, BT549; assay type: cell-based; conditions: Homo sapiens, BT-549, 72 hours, read-out: IC50 values according to the cell viability inhibition
Procedure: (§2) The human breast cancer cell lines MDA-MB-231 and JIMT-1 were treated with chromene-benzimidazole derivatives of Formulas 1-1 to 1-53 at various concentrations of 0, 1, and 5 µM, respectively, for 72 hours, and then cell viability was measured using the MTS assay technique. In the MTS assay, cells were attached to a 96-well plate for 24 hours, treated with the chromene-benzimidazole derivative for 72 hours, developed with MTS (3-(4,5-dimethylthiazol-2-yl)-5-(3-carboxymethoxyphenyl)-2-(4-sulfophenyl)-2H-tetrazolium) for 4 hours, and then the absorbance was measured at 490 nm using a Spectramax Plus384 microplate analyzer.
(§3) After treating the triple-negative breast cancer cell lines MDA-MB-231 and BT549 with the chromene-benzimidazole derivative Compound (1-1) by concentration (0, 0.01, 0.05, 0.1, 0.5, 1, 5, 10, 20, and 40 µM) for 72 hours, concentration-dependent cell viability (MTS assay) inhibition and IC50 values according to the cell viability inhibition were confirmed and shown in FIGS. 7A and 7B.

MDA-MB-231 [5] = test: MTS assay cell viability, MDA-MB-231; assay type: cell-based; conditions: Homo sapiens, read-out: IC50 values according to the cell viability inhibition
Procedure: MDA-MB-231 (Cell seeding numbers: 0.8(M231) x 10^4 cells/wells (confluency ≧ 25%), which is a human triple-negative breast cancer (TNBC) cell line, and JIMT-1 (Cell seeding numbers: 0.8(JIMT) x 10^4 cells/wells (confluency ≧ 25%)), which is a HER2 positive breast cancer (HER2+ BC) cell line, were used in the experiment.
The above cell lines were cultured in Dulbecco's modified Eagle's medium (DMEM) containing 10% fetal bovine serum (FBS), streptomycin-penicillin (100 U/mL), and Fungizone (0.625 µg/mL) at 5% CO2 and 37°C.
as §2, §3
The […] MDA-MB-231 and […] were treated with the chromene-benzimidazole derivative compounds (1-13, 1-19, and 1-22) by concentration (0, 0.01, 0.05, 0.1, 0.25, 0.5, 1, 2, and 5 µM) for 72 hours. Detailed treatment conditions were the same as disclosed in Example 2.1. Concentration-dependent cell viability (MTS assay) inhibition and IC50 values according to the cell viability inhibition were confirmed and shown in FIG. 9.
After treating the triple-negative breast cancer cell line MDA-MB-231 with the chromene-benzimidazole derivative compounds (1-9, 1-10, 1-11, 1-15, 1-16, and 1-17) by concentration (0, 0.01, 0.05, 0.1, 0.25, 0.5, 1, 2, and 5 µM) for 72 hours, concentration-dependent cell viability (MTS assay) inhibition and IC50 values according to the cell viability inhibition were confirmed and shown in FIG. 13. […]

BT549 [6] = test: Annexin V/PI staining flow cytometry, BT549; assay type: cell-based
From the text: (§4) The degree of apoptosis of MDA-MB-231 and BT549 cells by the compound of Formula 1-1 was confirmed by a flow cytometer through Annexin V/PI staining, which is shown in FIG. 7D.

tubulin = test: Western blot of tubulin and apoptosis-related proteins in MDA-MB-231; assay type: cell-based, human; conditions: 0, 5, 10, and 20 µM, 72 hours
Procedure: Subsequently, after treating the MDA-MB-231 cell line with the compound of Formula 1-1 by concentration (0, 5, 10, and 20 µM) for 72 hours, degradation of tubulin and expression of apoptosis-related proteins were confirmed by Western blot, which is shown in FIG. 8C.

BT549 [7] = test: Propidium iodide DNA content flow cytometry (cell cycle), BT549; assay type: cell-based; conditions: 0, 5, 10, and 20 µM, 72 hours
[8] = system: STAT3, c-MET, ERK, and AKT; test: Western blot of HSP90 client proteins in MDA-MB-231; assay type: cell-based, human; conditions: 0, 5, 10, and 20 µM, 72 hours
MDA-MB-231 [9] = test: Annexin V/PI staining flow cytometry, MDA-MB-231; assay type: cell-based, human
From the text: as §4

[10] = system: colorectal cancer cell line HCT116; test: MTS assay cell viability, HCT116; assay type: cell-based; conditions: 0, 0.1, 0.5, 1, 5, and 10 µM, 72 hours
Procedure: (§5) After treating a hematologic cancer cell line HL-60, a liver cancer cell line HepG2, a lung cancer cell line H1299, a colorectal cancer cell line HCT116, and an ovarian cancer cell line SKOV3 with the chromene-benzimidazole derivative compound 1-22 by concentration (0, 0.1, 0.5, 1, 5, and 10 µM) for 72 hours, concentration-dependent cell viability (MTS assay) inhibition and IC50 values according to the cell viability inhibition were confirmed and shown in FIG. 11.

[11] = system: liver cancer cell line HepG2; test: MTS assay cell viability, HepG2; assay type: cell-based; conditions: 0, 0.1, 0.5, 1, 5, and 10 µM, 72 hours
Procedure: as §5

[12] = system: hematologic cancer cell line HL-60; test: MTS assay cell viability, HL-60; assay type: cell-based; conditions: 0, 0.1, 0.5, 1, 5, and 10 µM, 72 hours
Procedure: as §5

[13] = system: ovarian cancer cell line SKOV3; test: MTS assay cell viability, SKOV3; assay type: cell-based; conditions: 0, 0.1, 0.5, 1, 5, and 10 µM, 72 hours
Procedure: as §5

[14] = system: lung cancer cell line H1299; test: MTS assay cell viability, H1299; assay type: cell-based; conditions: 0, 0.1, 0.5, 1, 5, and 10 µM, 72 hours
Procedure: as §5

[15] = MDA-MB-231 and JIMT-1 treated, cell line of the values not given, 72 hours

- IC50 (BT549 [4]): 8490 nM
- IC50 (MDA-MB-231 [5]; MDA-MB-231, 72 hours): 5660 nM
Compound: COc1c(NC(=O)Nc2ccc3[nH]c(Cl)nc3c2)ccc2c1C=CC(C)(C)O2 [Compound 1-1, 1-(2-chloro-1H-benzo[d]imidazol-5-yl)-3-(5-methoxy-2,2-dimethyl-2H-chromen-6-yl)urea]
- morphological changes of cells (apoptosis) (BT549 [1]): apoptosis was induced in a concentration-dependent manner
- C-terminal HSP90 activity [2]: lowered C-terminal HSP90 activity to less than half compared to the existing Novobiocin
- morphological changes of cells (apoptosis) (MDA-MB-231 [3]; 0, 5, 10, and 20 µM): apoptosis was induced in a concentration-dependent manner
- degree of apoptosis (BT549 [6]): early and late apoptosis were induced
- degradation of tubulin / tubulin polymerization reaction (tubulin): could inhibit a tubulin polymerization reaction
- cell cycle (DNA content) (BT549 [7]): G2/M phase cell cycle arrest
- protein expression and phosphorylation of HSP90 client proteins [8]: decreases in protein expression and phosphorylation of STAT3, c-MET, ERK, and AKT
- degree of apoptosis (MDA-MB-231 [9]): early and late apoptosis were induced

- IC50 (MDA-MB-231 [5]; MDA-MB-231, 72 hours): 273 nM
Compound: COc1c(NC(=O)Nc2ccc3[nH]c(-c4ccc(F)cc4)nc3c2)ccc2c1C=CC(C)(C)O2 [Compound 1-9, 1-(2-(4-fluorophenyl)-1H-benzo[d]imidazol-5-yl)-3-(5-methoxy-2,2-dimethyl-2H-chromen-6-yl)urea]

- IC50 (MDA-MB-231 [5]; MDA-MB-231, 72 hours): 829 nM
Compound: COc1c(NC(=O)Nc2ccc3[nH]c(-c4cccc(F)c4)nc3c2)ccc2c1C=CC(C)(C)O2 [Compound 1-10, 1-(2-(3-fluorophenyl)-1H-benzo[d]imidazol-5-yl)-3-(5-methoxy-2,2-dimethyl-2H-chromen-6-yl)urea]

- IC50 (MDA-MB-231 [5]; MDA-MB-231, 72 hours): 335 nM
Compound: COc1c(NC(=O)Nc2ccc3[nH]c(-c4ccc(Cl)cc4)nc3c2)ccc2c1C=CC(C)(C)O2 [Compound 1-11, 1-(2-(4-chlorophenyl)-1H-benzo[d]imidazol-5-yl)-3-(5-methoxy-2,2-dimethyl-2H-chromen-6-yl)urea]

- IC50 (MDA-MB-231 [5]; [15]): 154 nM
Compound: COc1c(NC(=O)Nc2ccc3[nH]c(-c4ccc(C#N)cc4)nc3c2)ccc2c1C=CC(C)(C)O2 [Compound 1-13, 1-(2-(4-cyanophenyl)-1H-benzo[d]imidazol-5-yl)-3-(5-methoxy-2,2-dimethyl-2H-chromen-6-yl)urea]
- morphological changes of cells (MDA-MB-231 [3]): Typical morphological changes of cell cycle arrest and apoptosis
- cell viability inhibition [10]: effective cell viability inhibition
- cell viability inhibition [11]: effective cell viability inhibition
- cell viability inhibition [12]: effective cell viability inhibition
- cell viability inhibition [13]: effective cell viability inhibition
- cell viability inhibition [14]: effective cell viability inhibition

- IC50 (MDA-MB-231 [5]; MDA-MB-231, 72 hours): 452 nM
Compound: COc1ccc(-c2nc3cc(NC(=O)Nc4ccc5c(c4OC)C=CC(C)(C)O5)ccc3[nH]2)cn1 [Compound 1-15, 1-(5-methoxy-2,2-dimethyl-2H-chromen-6-yl)-3-(2-(6-methoxypyridin-3-yl)-1H-benzo[d]imidazol-5-yl)urea]

- IC50 (MDA-MB-231 [5]; MDA-MB-231, 72 hours): 960 nM
Compound: COc1c(NC(=O)Nc2ccc3[nH]c(-c4ccc(N(C)C)cc4)nc3c2)ccc2c1C=CC(C)(C)O2 [Compound 1-16, 1-(2-(4-(dimethylamino)phenyl)-1H-benzo[d]imidazol-5-yl)-3-(5-methoxy-2,2-dimethyl-2H-chromen-6-yl)urea]

- IC50 (MDA-MB-231 [5]; MDA-MB-231, 72 hours): 586 nM
Compound: COc1cc(-c2nc3cc(NC(=O)Nc4ccc5c(c4OC)C=CC(C)(C)O5)ccc3[nH]2)cc(OC)c1OC [Compound 1-17, 1-(5-methoxy-2,2-dimethyl-2H-chromen-6-yl)-3-(2-(3,4,5-trimethoxyphenyl)-1H-benzo[d]imidazol-5-yl)urea]

- IC50 (MDA-MB-231 [5]; [15]): 1060 nM
Compound: COc1c(NC(=O)Nc2ccc3[nH]c(-c4ccc(F)cc4F)nc3c2)ccc2c1C=CC(C)(C)O2 [Compound 1-19, 1-(2-(2,4-difluorophenyl)-1H-benzo[d]imidazol-5-yl)-3-(5-methoxy-2,2-dimethyl-2H-chromen-6-yl)urea]

- IC50 (MDA-MB-231 [5]; [15]): 276 nM
Compound: COc1c(NC(=O)Nc2ccc3[nH]c(-c4ccc(C)cc4)nc3c2)ccc2c1C=CC(C)(C)O2 [Compound 1-22, 1-(5-methoxy-2,2-dimethyl-2H-chromen-6-yl)-3-(2-(p-tolyl)-1H-benzo[d]imidazol-5-yl)urea]
- morphological changes of cells (MDA-MB-231 [3]): Typical morphological changes of cell cycle arrest and apoptosis
- cell viability inhibition [10]: effective cell viability inhibition
- cell viability inhibition [11]: effective cell viability inhibition
- cell viability inhibition [12]: effective cell viability inhibition
- cell viability inhibition [13]: effective cell viability inhibition
- cell viability inhibition [14]: effective cell viability inhibition
